Earlier results on 1 compound are cited in patent EP2919756B1, “SOLID LIPID NANOPARTICLES OF ROXITHROMYCIN FOR HAIR LOSS OR ACNE” (Gdanski Uniwersytet Medyczny, priority 2012, dated 2014).

The conditions of data set [1]: external application of 0.5% solution for 24 weeks.
The next data set concerns human hair follicles. The following applies: human hair follicles in vitro.

Regarding `CC[C@H]1OC(=O)[C@H](C)[C@@H](O[C@H]2C[C@@](C)(OC)[C@@H](O)[C@H](C)O2)[C@H](C)[C@@H](O[C@@H]2O[C@H](C)C[C@H](N(C)C)[C@H]2O)[C@](C)(O)C[C@@H](C)/C(=N\OCOCCOC)[C@H](C)[C@@H](O)[C@]1(C)O` [roxithromycin, Roxithromycin], in data set [1], the “local or systemic side effects or undesirable action” value was “no local or systemic side effects or undesirable action was recorded” and the “thickening of the hair” value is “Substantial thickening of the hair”. In addition, in data set [1] (patients with androgenic hair loss), the restored hair growth entry was “more than half of the patient population”. In addition, the hair elongation result in the data set with human hair follicles is listed as “caused hair elongation”. Moreover, the “follicle's passage to the catagen phase” value in the data set on human hair follicles (through inhibition of keratinocyte apoptosis) was “inhibit the follicle's passage to the catagen phase”.
